In patent US20130315843A1, “COMPOSITION FOR REDUCTION OF TRPA1 AND TRPV1 SENSATIONS” (priority 2012, published 2013):
Counter-ions that a name gives are not always drawn. Like-named read-outs stand apart in the source and are kept apart here.

Experiments:
[1] = target: human TRPA1 (Homo sapiens, UniProt O75762); assay: FLIPR Ca2+ assay, reduction of L-Menthol activation of TRPA1
Method: In order to determine whether TRPA1 is activated, the intracellular calcium ion (Ca^2+) level from transfected cells with the TRPA1 receptor gene was measured. HEK-2 cells stably transfected with human TRPA1 were grown in 15 ml growth medium [high glucose DMEM (Dulbecco's Modification of Eagle's Medium) supplemented with 10% FBS (fetal bovine serum), 100 μg/ml Penicillin/streptomycin, 100 μg/ml G418] in a 75 Cm^2 flask for 3 days at 37° C. in a mammalian cell culture incubator set at 5% CO2. Cells were detached with addition of 10 ml of PBS (phosphate buffered saline) by hand shaking gently and transferred to a 50 ml tube and centrifuged at 850 rpm for 3 minutes to remove PBS. After centrifugation, a pellet of cells was formed in the bottom of the tube separating them from the supernatant solution. […] Fluo-4 is a fluorescent dye used for quantifying cellular Ca^2+ concentrations in the 100 nM to 1 μM range.
The pelleted cells were re-suspended in 10 ml assay buffer and 90 μl aliquots (˜50,000 cells) per well delivered to a 96-well assay plate containing 10 μl of test compounds (1 mM in assay buffer, final concentration 100 μM) or buffer control and incubated at room temperature for 30 minutes. After 30 minutes, the plate was placed into a fluorometric imaging plate reader (FLIPR384 from Molecular Devices) and basal fluorescence recorded (excitation wave length 488 nm and emission wave length 510 nm). Then 20 μl of the molecule being tested as a TRPA1 antagonist was added and fluorescence recorded. For determining the direct effect of test compounds on TRPA1, fluorescence was measured immediately after addition of each compound.
To determine if a compound was an antagonist or a desensitizer the direct effect of a test compound was determined. For determining the direct effect of test compounds on TRPA1 receptor activation, 100 μl aliquots (˜50,000 cells) of cells prepared as described above were delivered to a 96-well assay plate and basal fluorescence recorded as noted above. Then 20 μl of the compound being tested as a TRPA1 activator was added and fluorescence recorded. If any increase in fluorescence over background was noted, then the compound was considered an agonist.

[2] = target: human TRPV1 (Homo sapiens, UniProt Q8NER1); assay: FLIPR Ca2+ assay, reduction of L-Menthol activation of TRPV1; conditions: for inhibition at 100 µM: read-out: % Reduction of L-Menthol TRPV1 Activation
Sequence of human TRPV1 (Q8NER1 whole entry): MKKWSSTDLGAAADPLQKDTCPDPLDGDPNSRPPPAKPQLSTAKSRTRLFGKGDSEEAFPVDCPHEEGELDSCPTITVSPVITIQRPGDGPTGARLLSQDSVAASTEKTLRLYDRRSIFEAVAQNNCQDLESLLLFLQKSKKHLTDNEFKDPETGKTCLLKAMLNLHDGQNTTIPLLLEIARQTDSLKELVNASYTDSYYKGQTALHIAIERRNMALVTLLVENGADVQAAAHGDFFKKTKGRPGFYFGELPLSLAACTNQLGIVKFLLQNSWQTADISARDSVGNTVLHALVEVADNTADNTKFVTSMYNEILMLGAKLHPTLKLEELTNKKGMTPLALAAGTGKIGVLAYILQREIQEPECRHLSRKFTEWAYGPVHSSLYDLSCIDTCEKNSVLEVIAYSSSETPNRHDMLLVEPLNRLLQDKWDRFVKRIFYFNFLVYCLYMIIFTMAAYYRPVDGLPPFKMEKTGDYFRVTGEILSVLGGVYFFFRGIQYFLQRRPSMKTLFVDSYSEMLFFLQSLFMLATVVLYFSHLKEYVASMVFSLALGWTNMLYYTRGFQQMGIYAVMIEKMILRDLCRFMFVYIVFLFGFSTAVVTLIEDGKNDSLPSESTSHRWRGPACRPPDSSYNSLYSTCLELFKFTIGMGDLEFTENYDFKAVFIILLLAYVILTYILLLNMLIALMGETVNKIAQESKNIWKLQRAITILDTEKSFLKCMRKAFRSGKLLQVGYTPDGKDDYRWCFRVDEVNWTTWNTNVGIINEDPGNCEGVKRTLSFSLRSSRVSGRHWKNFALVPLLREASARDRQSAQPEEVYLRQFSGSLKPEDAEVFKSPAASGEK

[3] = 100 μM antagonist vs 1 mM L-Menthol
[4] = antagonist 100 μM against 1 mM L-Menthol

Sequence of human TRPA1 (O75762 whole entry): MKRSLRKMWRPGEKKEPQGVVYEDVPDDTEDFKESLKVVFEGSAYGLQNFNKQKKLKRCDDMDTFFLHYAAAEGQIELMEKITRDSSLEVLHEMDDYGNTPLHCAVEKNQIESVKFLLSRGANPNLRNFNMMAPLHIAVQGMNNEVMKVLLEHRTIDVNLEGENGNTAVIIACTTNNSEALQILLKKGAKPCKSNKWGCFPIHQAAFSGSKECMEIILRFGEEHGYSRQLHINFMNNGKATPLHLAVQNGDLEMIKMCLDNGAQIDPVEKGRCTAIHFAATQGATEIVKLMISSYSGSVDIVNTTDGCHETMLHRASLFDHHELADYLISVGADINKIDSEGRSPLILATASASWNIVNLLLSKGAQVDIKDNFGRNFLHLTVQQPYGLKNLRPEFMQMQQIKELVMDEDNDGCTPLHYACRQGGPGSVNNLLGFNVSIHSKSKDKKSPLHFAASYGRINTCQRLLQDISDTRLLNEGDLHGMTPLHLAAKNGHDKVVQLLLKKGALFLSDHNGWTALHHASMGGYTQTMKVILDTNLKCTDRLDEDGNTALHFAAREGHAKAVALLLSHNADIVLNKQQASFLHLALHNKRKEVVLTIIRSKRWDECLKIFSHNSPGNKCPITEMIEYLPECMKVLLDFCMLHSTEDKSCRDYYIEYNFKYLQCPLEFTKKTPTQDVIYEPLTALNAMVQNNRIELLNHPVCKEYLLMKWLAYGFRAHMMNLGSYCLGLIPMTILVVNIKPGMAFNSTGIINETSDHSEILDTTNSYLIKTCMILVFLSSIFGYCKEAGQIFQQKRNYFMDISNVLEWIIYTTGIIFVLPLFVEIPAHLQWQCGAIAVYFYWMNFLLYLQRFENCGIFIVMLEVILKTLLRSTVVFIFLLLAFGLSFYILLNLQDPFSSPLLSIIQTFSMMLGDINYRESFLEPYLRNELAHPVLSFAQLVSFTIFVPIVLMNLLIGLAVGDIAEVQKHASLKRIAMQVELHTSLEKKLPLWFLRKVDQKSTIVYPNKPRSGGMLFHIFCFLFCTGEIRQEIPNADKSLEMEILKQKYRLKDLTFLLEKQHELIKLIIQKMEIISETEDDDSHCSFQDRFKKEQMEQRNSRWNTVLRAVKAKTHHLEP

Compound	Block of L-Menthol activation of TRPA1 [1, 3]	Average Ca2+ Counts [2, 4]	inhibition at 100 µM [2]	Block of L-Menthol activation of TRPA1 [1]	% Reduction of L-Menthol TRPV1 Activation [2]	Average Ca2+ Counts [2]
COc1ccccc1C(=O)O [2-methoxybenzoic acid]	BLOCK ONLY MENTHOL/TRPA1	1441.7 Counts	25.2%			
CCCCCC(=O)OCC(C)C [isobutyl hexanoate]	BLOCK ONLY MENTHOL/TRPA1	3443.5 Counts	25.8%			
CCc1nccnc1OC [2-ethyl-3-methoxypyrazine]	BLOCK ONLY MENTHOL/TRPA1	1432.7 Counts	25.7%			
C=CCOC(=O)CCCCCCC [allyl caprylate]	BLOCK ONLY MENTHOL/TRPA1	2572.0 Counts	44.6%			
CCCCOC(=O)CCCCCCCCC(=O)OCCCC [dibutyl sebacate]	BLOCK ONLY MENTHOL/TRPA1	1398.0 Counts	27.3%			
CSC(C)C(C)=O (stereo not drawn) [3-methylthio-2-butanone]	BLOCK ONLY MENTHOL/TRPA1	1554.0 Counts	20%			
O=C(O)c1ccc(O)c(O)c1 [3,4-dihydroxybenzoic acid]	BLOCK ONLY MENTHOL/TRPA1	1539.7 Counts	20.7%			
COC(=O)CCSC [methyl 3-(methylthio)propionate]	BLOCK ONLY MENTHOL/TRPA1	998.7 Counts	45.7%			
CC1(C)C2CC[C@@]1(C)C(=O)C2 [(1r)-(+)-camphor]	BLOCK ONLY MENTHOL/TRPA1	2807.0 Counts	30.5%			
CCC/C=C/COC(=O)CC [propionic acid trans-2-hexen-1-yl ester]	BLOCK ONLY MENTHOL/TRPA1	1128.3 Counts	39.7%			
C=C[C@H]1C[N@@]2CC[C@H]1C[C@H]2[C@H](O)c1ccnc2ccc(OC)cc12 [quinine hydrochloride dihydrate]	BLOCK ONLY MENTHOL/TRPA1	1505.3 Counts	22.3%			
CCC/C=C/C(=O)OCC [ethyl trans-2-hexenoate]	BLOCK ONLY MENTHOL/TRPA1	1102.7 Counts	40.9%			
O=C(O)CN(CCN(CC(=O)O)CC(=O)O)CC(=O)O [edta]				BLOCK ONLY MENTHOL/TRPA1	34.8%	1236.0 Counts
Cc1ccc(C)c(O)c1C [2,3,6-trimethylphenol]	BLOCK ONLY MENTHOL/TRPA1	1339.3 Counts	30%			
COc1cc(C)cc(OC)c1O [4-methyl-2,6-dimethoxyphenol]	BLOCK ONLY MENTHOL/TRPA1	1292.3 Counts	32.1%			
O=C(O)c1ccc(O)cc1O [beta-resorcylic acid]	BLOCK ONLY MENTHOL/TRPA1	1317.3 Counts	31%			
